The values below come from patent US12448378B2, “Fluoropyrrolopyridine compound and application thereof” (Wuxi Life Fountain Biotech Co., Ltd, priority 2020, dated 2025).

In series [1] the test system is human gastric cancer SNU-601 xenograft tumor. Put plainly: In vivo efficacy, human gastric cancer cell SNU-601 CDX xenograft model. Details: species or system mice. As to conditions: for tumor volume: day 21, CB17 SCID mice. The source says:
The main objective of this study was to study the antitumor efficacy of the test sample on the xenograft tumor model of human gastric cancer cell SNU-601.
• Species: mice • Strain: CB17 SCID mice • Supplier: Huafukang Laboratory Animal Technology Co., Ltd. • Week age: 6-8 weeks old • Gender: female 2. Cell Culture
Human gastric cancer SNU-601 cells, sourced from KCLB (Cat. No.: 00601), were maintained and passaged by HD Biosciences (Shanghai) Co., Ltd. In vitro culture conditions were RPMI 1640 culture medium (containing 300 mg/L L-glutamine) with 10% fetal bovine serum, 25 mM HEPES and 25 mM sodium bicarbonate, incubated in 5% CO2 incubator at 37° C., and passaged for two or three times a week. When the number of cells reached the requirement, the cells were collected and counted. 0.2 mL (5×10^6 cells) SNU-601 cells (resuspended in DPBS:Matrigel=1:1) were subcutaneously inoculated into the right back of each mouse, and the group administration was started when the average tumor volume reached 147.61 mm^3.
Administration dosage: Compound 1 was orally administered at three doses of 15 mg/kg (administered for 3 days without administration for 4 days), 10 mg/kg (administered for 3 days without administration for 4 days) and 5 mg/kg (continuous administration).
Tumor diameters were measured with vernier calipers three times a week. The tumor volume was calculated by the formula: V=0.5×a×b^2, wherein a and b referred to the long and short diameter of the tumor, respectively. The calculation formula of relative tumor volume (RTV) was: RTV (%)=(Vt/V1)×100; the calculation formula of animal body weight change (BWC) was: BWC (%)=(BWt−BW1)/BW1×100, wherein V1 and BW1 referred to the tumor volume and body weight of a certain animal on the day of group administration, and Vt and BWt referred to the tumor volume and body weight of a certain animal at a certain measurement.
The antitumor efficacy of the compounds was evaluated by TGI (%) or relative tumor proliferation rate T/C (%). Relative tumor proliferation rate T/C (%)=TRTV/CRTV×100 (TRTV: mean RTV of the treatment group; CRTV: mean RTV of the negative control group). The relative tumor volume (RTV) was calculated according to the results of tumor measurement, and the calculation formula was RTV=Vt/V1, wherein V1 was the tumor volume measured at the time of group administration (that is, D1), Vt was the tumor volume at a certain measurement, and the data of TRTV and CRTV were taken on the same day.
TGI (%) reflected the tumor growth inhibition rate. TGI (%)=[(1−(average tumor volume at the end of administration of a certain treatment group−average tumor volume at the beginning of administration of this treatment group))/(average tumor volume at the end of treatment in the solvent control group−average tumor volume at the beginning of treatment in the solvent control group)]×100.
After the experiment, the tumor weight would be detected, and the percentage of Tweight/Cweight would be calculated. Tweight and Cweight referred to the tumor weight of the administration group and the solvent control group, respectively.
In this experiment, the xenograft tumor model of human gastric cancer cell SNU601 was used to evaluate the in vivo efficacy of the test compounds. During the whole administration period, no animals were discontinued due to body weight loss of more than 10%, and the efficacy test was terminated on the 21st day after administration.
Background: A xenograft is tissue or cells of one species grown in another, often human tumour cells in immunodeficient mice.

Series [2] deals with human ATR kinase (ATR/ATRIP (h)) (Homo sapiens (Human), UniProt Q13535). Briefly: ATR enzyme activity in vitro (HTRF kinase assay). It counts as biochemical. As to conditions: 10 μM ATP, GST-cMyc-p53 substrate. The method, then:
The inhibitory activity of the test compounds against human ATR kinase was evaluated by measuring IC50 value.
ATR/ATRIP (h) was incubated in detection buffer containing 50 nM GST-cMyc-p53 and Mg/ATP (10 μM). The reaction was initiated by adding Mg/ATP mixture. After incubation at room temperature for 30 minutes, the reaction was terminated by adding a termination solution containing EDTA. Finally, a detection buffer containing d^2-labeled anti-GST monoclonal antibody and europium-labeled anti-phospho-Ser15 antibody against phosphorylated p53 were added. Plates were then read in time-resolved fluorescence mode for homogeneous time resolution.
The fluorescence (HTRF) signal was determined according to the formula HTRF=10000×(Em665 nm/Em620 nm).
(In general: TR-FRET usually uses a lanthanide donor and a delayed reading to cut background.)

For another series, the system named is tumor cell line LoVo. Briefly: In vitro LoVo cell proliferation inhibition (CellTiter-Glo). It counts as cell-based. The settings on record: Homo sapiens, LoVo cells. The method, then: In this experiment, the inhibitory effect of the compounds on cell proliferation was studied by detecting the effect of the compounds on the in vitro cell activity in the tumor cell line LoVo.
CellTiter-Glo Luminescent Cell Viability Assay
The following steps were carried out according to the instructions of PromegaCellTiter-Glo luminescent cell viability assay kit (Promega-G7573).
(1) CellTiter-Glo buffer was thawed and placed at room temperature.
(2) CellTiter-Glo substrate was placed at room temperature.
(3) CellTiter-Glo working solution was prepared by adding CellTiter-Glo buffer to a vial of CellTiter-Glo substrate to dissolve the substrate.
(4) Slowly vortexed to fully dissolve. […]
(8) The culture plate was left at room temperature for 10 minutes to stabilize the luminescence signal.
(9) The luminescence signal was detected on the SpectraMax i3x of Molecular Devices plate reader.
The Inhibition rate (IR) of the test compound was calculated using the following formula: IR (%)=(1−(RLU compound−RLU blank control)/(RLU solvent control−RLU blank control))*100%. The inhibition rates of different concentrations of the compounds were calculated in Excel, and then the inhibition curves were made by GraphPad Prism software and the related parameters were calculated, including the minimum inhibition rate, the maximum inhibition rate and IC50.
Background: Cellular ATP, detected with luciferase, serves as a proxy for viable cell number.

The nature of series [3]: In vivo pharmacokinetics in female Balb/c Nude mice. As to the method:
Test sample: On the basis of the above experiments, compound 1 was selected for further experiments.
Experimental methods: The purpose of this study was to determine the pharmacokinetic parameters of compound 1 and to calculate its oral bioavailability in female Balb/c Nude mice. This project used 4 female Balb/c Nude mice. Two mice were administered intravenously at a dose of 1 mg/kg, and plasma samples were collected at 0 hours (before administration) and 0.0833, 0.25, 0.5, 1, 2, 4, 6, 8, 24 hours after administration. The other two mice were administered orally by gavage at a dose of 10 mg/kg or 25 mg/kg, and plasma samples were collected at 0 hours (before administration) and 0.25, 0.5, 1, 2, 4, 6, 8, 24 hours after administration. The collected samples were then analyzed by LC/MS/MS and data were collected. The collected analysis data were used to calculate the relevant pharmacokinetic parameters by Phoenix WinNonlin 6.2.1 software.

The mark [4] stands for this setting: whole experimental period, compound 1 administration group.
[5] abbreviates: mouse, plasma, intravenous 1 mg/kg.

Chain of human ATR kinase (ATR/ATRIP (h)) (Q13535 whole entry): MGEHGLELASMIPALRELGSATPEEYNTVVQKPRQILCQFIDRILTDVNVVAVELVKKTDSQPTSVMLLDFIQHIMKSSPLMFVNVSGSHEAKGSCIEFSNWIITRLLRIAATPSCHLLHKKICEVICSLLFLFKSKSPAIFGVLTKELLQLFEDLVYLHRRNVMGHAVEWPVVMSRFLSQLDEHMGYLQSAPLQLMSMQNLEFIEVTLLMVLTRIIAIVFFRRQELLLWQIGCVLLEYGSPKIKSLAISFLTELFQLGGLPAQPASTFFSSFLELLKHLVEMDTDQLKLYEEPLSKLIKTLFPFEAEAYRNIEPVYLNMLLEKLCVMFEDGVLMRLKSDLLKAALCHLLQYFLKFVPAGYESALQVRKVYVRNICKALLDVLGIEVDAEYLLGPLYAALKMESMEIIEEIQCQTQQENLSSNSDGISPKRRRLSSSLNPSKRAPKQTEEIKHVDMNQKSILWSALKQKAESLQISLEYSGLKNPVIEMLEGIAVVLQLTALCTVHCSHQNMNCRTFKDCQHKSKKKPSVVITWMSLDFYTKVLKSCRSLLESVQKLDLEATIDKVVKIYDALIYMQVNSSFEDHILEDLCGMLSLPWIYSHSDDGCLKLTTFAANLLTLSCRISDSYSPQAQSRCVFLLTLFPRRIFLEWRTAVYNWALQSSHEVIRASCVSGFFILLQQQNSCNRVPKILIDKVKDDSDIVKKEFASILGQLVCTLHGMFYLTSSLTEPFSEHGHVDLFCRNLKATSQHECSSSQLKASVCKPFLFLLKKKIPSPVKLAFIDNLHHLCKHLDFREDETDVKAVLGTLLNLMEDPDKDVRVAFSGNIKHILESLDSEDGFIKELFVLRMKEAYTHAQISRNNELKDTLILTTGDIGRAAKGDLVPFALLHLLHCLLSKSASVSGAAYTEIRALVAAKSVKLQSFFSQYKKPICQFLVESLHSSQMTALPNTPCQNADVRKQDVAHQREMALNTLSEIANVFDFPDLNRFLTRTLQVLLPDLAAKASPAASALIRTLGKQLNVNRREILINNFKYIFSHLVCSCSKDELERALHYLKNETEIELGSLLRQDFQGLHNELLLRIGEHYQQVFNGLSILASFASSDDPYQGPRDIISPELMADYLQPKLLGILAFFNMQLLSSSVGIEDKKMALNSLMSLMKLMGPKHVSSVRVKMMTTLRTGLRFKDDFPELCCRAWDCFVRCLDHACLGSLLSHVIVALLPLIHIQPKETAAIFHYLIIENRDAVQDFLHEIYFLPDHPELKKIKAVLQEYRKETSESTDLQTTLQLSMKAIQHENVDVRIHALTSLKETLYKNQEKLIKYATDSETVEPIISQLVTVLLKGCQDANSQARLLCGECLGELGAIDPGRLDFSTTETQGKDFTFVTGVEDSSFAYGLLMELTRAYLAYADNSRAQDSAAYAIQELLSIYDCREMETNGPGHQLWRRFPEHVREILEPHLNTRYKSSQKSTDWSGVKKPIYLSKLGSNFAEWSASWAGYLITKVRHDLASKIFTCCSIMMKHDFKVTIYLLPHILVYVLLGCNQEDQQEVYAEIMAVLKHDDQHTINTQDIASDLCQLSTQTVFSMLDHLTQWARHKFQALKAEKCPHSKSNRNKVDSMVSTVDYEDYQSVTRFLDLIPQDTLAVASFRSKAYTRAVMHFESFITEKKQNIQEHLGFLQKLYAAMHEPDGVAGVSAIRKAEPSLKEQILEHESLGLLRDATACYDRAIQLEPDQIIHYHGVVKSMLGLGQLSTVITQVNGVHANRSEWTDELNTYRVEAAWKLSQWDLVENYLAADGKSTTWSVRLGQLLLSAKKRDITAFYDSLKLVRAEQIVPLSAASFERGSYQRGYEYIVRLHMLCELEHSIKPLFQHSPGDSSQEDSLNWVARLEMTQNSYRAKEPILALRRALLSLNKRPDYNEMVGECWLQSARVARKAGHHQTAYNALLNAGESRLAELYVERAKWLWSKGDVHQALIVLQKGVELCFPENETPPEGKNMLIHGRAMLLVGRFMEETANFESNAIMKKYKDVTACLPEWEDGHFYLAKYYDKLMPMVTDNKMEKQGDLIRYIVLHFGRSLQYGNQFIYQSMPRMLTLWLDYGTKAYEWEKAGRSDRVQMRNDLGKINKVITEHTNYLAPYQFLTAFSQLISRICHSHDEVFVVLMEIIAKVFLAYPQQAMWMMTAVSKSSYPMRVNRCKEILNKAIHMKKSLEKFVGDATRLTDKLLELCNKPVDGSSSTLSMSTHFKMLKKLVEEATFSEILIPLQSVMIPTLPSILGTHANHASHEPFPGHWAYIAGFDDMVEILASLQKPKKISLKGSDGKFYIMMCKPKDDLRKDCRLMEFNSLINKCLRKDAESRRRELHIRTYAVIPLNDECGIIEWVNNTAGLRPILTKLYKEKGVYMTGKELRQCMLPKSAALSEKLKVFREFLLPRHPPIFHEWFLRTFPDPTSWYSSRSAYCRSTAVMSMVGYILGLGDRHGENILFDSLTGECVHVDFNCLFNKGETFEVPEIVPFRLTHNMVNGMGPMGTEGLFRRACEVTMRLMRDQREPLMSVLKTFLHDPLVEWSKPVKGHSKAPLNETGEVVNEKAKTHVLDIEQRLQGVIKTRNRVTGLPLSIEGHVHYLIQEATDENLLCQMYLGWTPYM
Chain of human ATR kinase (ATR/ATRIP (h)) (Q8WXE1 whole entry partner): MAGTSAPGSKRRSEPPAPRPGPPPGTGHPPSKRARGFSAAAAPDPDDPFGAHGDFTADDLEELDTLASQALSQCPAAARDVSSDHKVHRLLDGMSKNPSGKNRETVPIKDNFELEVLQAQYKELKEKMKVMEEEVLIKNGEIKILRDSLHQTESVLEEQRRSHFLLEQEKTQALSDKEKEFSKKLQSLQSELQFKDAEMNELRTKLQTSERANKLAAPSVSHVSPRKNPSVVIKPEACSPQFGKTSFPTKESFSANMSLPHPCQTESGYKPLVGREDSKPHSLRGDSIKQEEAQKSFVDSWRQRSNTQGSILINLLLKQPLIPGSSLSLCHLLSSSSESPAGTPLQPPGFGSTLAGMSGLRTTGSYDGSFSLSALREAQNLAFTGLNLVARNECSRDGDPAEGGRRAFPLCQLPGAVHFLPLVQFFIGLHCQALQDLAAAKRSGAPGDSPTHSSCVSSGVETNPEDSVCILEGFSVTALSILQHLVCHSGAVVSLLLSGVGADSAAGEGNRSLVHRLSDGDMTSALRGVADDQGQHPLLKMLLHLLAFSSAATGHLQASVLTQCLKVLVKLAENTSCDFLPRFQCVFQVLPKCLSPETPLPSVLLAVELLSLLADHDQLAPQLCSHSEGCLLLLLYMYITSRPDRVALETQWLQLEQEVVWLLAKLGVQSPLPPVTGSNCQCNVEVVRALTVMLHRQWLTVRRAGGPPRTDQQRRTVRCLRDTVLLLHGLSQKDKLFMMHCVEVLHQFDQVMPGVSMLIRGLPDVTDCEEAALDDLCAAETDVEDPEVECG

What is called IC50 is the concentration that gives 50% inhibition. What is called AUC(0-t) is the area under the concentration-time curve up to a stated or last time point. High values mean high exposure, low ones low exposure. What is called clearance is a measure of how efficiently the substance is removed, as volume per time. The half-life is how long it takes for the measured level to halve. One may read the Cmax as the highest concentration seen after dosing. Consider `Cc1nnn(C)c1-c1cc(-c2c(F)ncc3[nH]ccc23)nc(N2CCOC[C@H]2C)c1` [Compound 1], for which the tumor volume in series [1] (oral 5 mg/kg (continuous administration)) came to 229.99±24.42 mm^3; in series [1] (oral 10 mg/kg (3 days on, 4 days off)), 136.74±14.46 mm^3; in series [1] (oral 15 mg/kg (3 days on, 4 days off)), 108.74±9.67 mm^3. Also, the “tumor inhibition rate TGI” value is 88.61% in series [1] (oral 5 mg/kg (continuous administration), day 21, p<0.01); 101.08% in series [1] (oral 10 mg/kg (3 days on, 4 days off), day 21, P<0.01); 104.81% in series [1] (oral 15 mg/kg (3 days on, 4 days off), day 21, p<0.01). Moreover, the animal state entry in series [1] (setting [4]) is recorded as “had no abnormality”. For the same molecule, the “body weight of the animals” value in series [1] (setting [4]) was “did not decrease significantly”. Also, the results for the 50% inhibitory concentration (IC50) (in series [2]; with tumor cell line LoVo) were 0.033 µM and 0.102 µM, respectively. This molecule registered a C0 in series [3] (mouse, intravenous 1 mg/kg, plasma) of 2.8 µM. The AUC(0-t) stood at 2.55 µM·h in series [3] (setting [5]); 23 µM·h in series [3] (mouse, plasma, oral 10 mg/kg); 82 µM·h in series [3] (mouse, plasma, oral 25 mg/kg). Also, the clearance in series [3] (setting [5]) worked out at 15.8 mL/min/kg. Besides, the half-life in series [3] (setting [5]) is 1.32 h; in series [3] (mouse, plasma, oral 10 mg/kg), 1.4 h; in series [3] (mouse, plasma, oral 25 mg/kg) it was 3.8 h. The Vd in series [3] (mouse, plasma, intravenous 1 mg/kg, read-out: Vdss) came out at 1.65 L/kg. The Cmax in series [3] (mouse, plasma, oral 10 mg/kg) is 9.56 µM; in series [3] (mouse, plasma, oral 25 mg/kg) it was 17.4 µM. For the same molecule, the F in series [3] (oral 10 mg/kg vs intravenous 1 mg/kg) was determined as 91.6%.
Consider `Cc1nnc(C)n1-c1cc(-c2c(F)ncc3[nH]ccc23)nc(N2CCOC[C@H]2C)c1` [Compound 2], for which the IC50 in series [2] was found to be 0.069 µM; in the series with tumor cell line LoVo, 0.234 µM.
For the molecule `C[C@@H]1COCCN1c1cc(-c2cccn2C)cc(-c2c(F)ncc3[nH]ccc23)n1` [Compound 5], inhibition in series [2] was half-maximal at 0.336 µM (IC50).
On the same count and under the same terms, under `C[C@@H]1COCCN1c1cc(-c2cnnn2C)cc(-c2c(F)ncc3[nH]ccc23)n1` [Compound 6] stands 0.211 µM; under `Cc1ncccc1-c1cc(-c2c(F)ncc3[nH]ccc23)nc(N2CCOC[C@H]2C)c1` [Compound 7], 0.078 µM; under `Cc1ccccc1-c1cc(-c2c(F)ncc3[nH]ccc23)nc(N2CCOC[C@H]2C)c1` [Compound 8], 0.425 µM.
As to `Cc1n[nH]c(C)c1-c1cc(-c2c(F)ncc3[nH]ccc23)nc(N2CCOC[C@H]2C)c1` [Compound 9], the IC50 in series [2] was found to be 0.031 µM.
With `COc1cc(C)c(-c2cc(-c3c(F)ncc4[nH]ccc34)nc(N3CCOC[C@H]3C)c2)cn1` [Compound 10], in series [2], the IC50 came to 0.182 µM.
Still for that read-out and setting: under `Cc1nn(C)cc1-c1cc(-c2c(F)ncc3[nH]ccc23)nc(N2CCOC[C@H]2C)c1` [Compound 13] stands 0.5 µM.
The same measure, in the same setting: under `Cc1cnn(C)c1-c1cc(-c2c(F)ncc3[nH]ccc23)nc(N2CCOC[C@H]2C)c1` [Compound 14] stands 0.057 µM; under `C[C@@H]1COCCN1c1cc(-c2ccnn2C)cc(-c2c(F)ncc3[nH]ccc23)n1` [Compound 15], 0.204 µM.
The same measure, in the same setting: under `Cc1noc(C)c1-c1cc(-c2c(F)ncc3[nH]ccc23)nc(N2CCOC[C@H]2C)c1` [Compound 16] stands 0.078 µM.
